Measurements taken from article PMC10384657 (Virus Research, 2023).

Tests used:
Vero E6 cells = details: 72 h
Vero E6/TMPRSS2 = details: 72 h
[1] = test system: MPER25c peptide (S2 membrane proximal region derived); type: binding, SARS-CoV-2

Compound: CC[C@H](C)[C@H](NC(=O)[C@H](CCC(N)=O)NC(=O)[C@H](CC(C)C)NC(=O)[C@H](C)NC(=O)[C@H](C)NC(=O)CNC(=O)[C@H](C)NC(=O)CNC(=O)[C@H](Cc1ccccc1)NC(C)=O)C(=O)N1CCC[C@H]1C(=O)N[C@@H](Cc1ccccc1)C(=O)N[C@@H](C)C(=O)N[C@@H](CCSC)C(=O)N[C@@H](CCC(N)=O)C(=O)N[C@@H](CCSC)C(=O)N[C@@H](C)C(=O)N[C@@H](Cc1ccc(O)cc1)C(=O)N[C@@H](CCCNC(=N)N)C(=O)N[C@@H](Cc1ccccc1)C(N)=O [PN19]
- fold reduction of the expected IC50 value of PN19 produced by MPER25 (SARS-CoV-2): 48 fold
- CC50 (mean ± SD) (Vero E6 cells): > 100 µM
- CC50 (mean ± SD) (Vero E6/TMPRSS2): > 100 µM
- binding to immobilized MPER25c (in words) [1]: binds to immobilized MPER25c
- ka [1]: 410.9 M⁻¹ s⁻¹

Compound: CC[C@H](C)[C@H](NC(=O)[C@H](CCC(N)=O)NC(=O)[C@H](CC(C)C)NC(=O)[C@H](C)NC(=O)[C@H](C)NC(=O)CNC(=O)[C@H](C)NC(=O)CNC(=O)[C@H](Cc1ccccc1)NC(C)=O)C(=O)N1CCC[C@H]1C(=O)N[C@@H](Cc1ccccc1)C(=O)N[C@@H](C)C(=O)N[C@@H](CCSC)C(=O)N[C@@H](CCC(N)=O)C(=O)N[C@@H](CCSC)C(=O)N[C@@H](C)C(=O)N[C@@H](Cc1ccc(O)cc1)C(=O)N[C@@H](CCCNC(=N)N)C(=O)N[C@@H](C)C(N)=O [PN19F→A906]
- CC50 (mean ± SD) (Vero E6 cells): > 100 µM
- fold lower binding activity to immobilized MPER25c than PN19 [1]: 2-3 fold
